Assay results published in the supplement of paper PMC11061612.

How the values were obtained:
[1] = test system: BxPC-3 (Pancreatic Carcinoma); assay: Bliss excess, mean over the matrix (fraction); higher = more synergy
Outline: (§1)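 Cell lines in DMEM/F12 or RPMI with 10% FBS were plated in 1536-well plates, held 24 hours at 37°C, 5% CO2, then given two-drug dose matrices for 72 hours (DMSO typically 0.2%). Viability was read by CellTiter-Glo 2.0 luminescence and scaled as inhibition from 0 (vehicle wells) to 1 (blank wells). Combination Emax is the second-highest inhibition in the matrix; Bliss excess is observed combination effect minus expected EA + EB − EA·EB, EA and EB being single-agent effects.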

[2] = test system: ES6 (Ewing's Sarcoma); assay: as above
Outline: as §1

[3] = test system: KALS-1 (Glioblastoma); assay: as above
Outline: as §1

[4] = test system: NCI-H226 (Mesothelioma); assay: as above
Outline: as §1

[5] = test system: RCC-JW (Kidney Carcinoma); assay: as above
Outline: as §1

[6] = test system: SK-N-SH (Neuroblastoma); assay: as above
Outline: as §1

[7] = test system: C-33-A (Cervical Carcinoma); assay: combination Emax (second highest fraction inhibited in the dose matrix, 72 h); higher = more inhibition; extreme values may be limits of the assay
Outline: as §1

[8] = test system: CPC-N (Small Cell Lung Carcinoma); assay: as above
Outline: as §1

[9] = test system: ES6 (Ewing's Sarcoma); assay: as above
Outline: as §1

[10] = test system: GAK (Melanoma); assay: as above
Outline: as §1

[11] = test system: HPAF-II (Pancreatic Carcinoma); assay: as above
Outline: as §1

[12] = test system: IA-LM (Non-Small Cell Lung Carcinoma); assay: as above
Outline: as §1

[13] = test system: IST-MEL1 (Melanoma); assay: as above
Outline: as §1

[14] = test system: LCLC-103H (Non-Small Cell Lung Carcinoma); assay: as above
Outline: as §1

[15] = test system: MONO-MAC-6 (Acute Myeloid Leukemia); assay: as above
Outline: as §1

[16] = test system: NCI-H226 (Mesothelioma); assay: as above
Outline: as §1

[17] = test system: NCI-H3118 (Head and Neck Carcinoma); assay: as above
Outline: as §1

[18] = test system: RCC-JW (Kidney Carcinoma); assay: as above
Outline: as §1

[19] = test system: SK-CO-1 (Colorectal Carcinoma); assay: as above
Outline: as §1

[20] = test system: ZR-75-30 (Breast Carcinoma); assay: as above
Outline: as §1
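Throughout, for Bliss excess, mean over the matrix: after 72 h of two-drug dosing.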

O=C(c1cc(Cc2n[nH]c(=O)c3ccccc23)ccc1F)N1CCN(C(=O)C2CC2)CC1 [Olaparib] + CC1(C)CCC(CN2CCN(c3ccc(C(=O)NS(=O)(=O)c4ccc(NCC5CCOCC5)c([N+](=O)[O-])c4)c(Oc4cnc5[nH]ccc5c4)c3)CC2)=C(c2ccc(Cl)cc2)C1 [Venetoclax] (first compound max 10 µM, 7x7, partner max 1 µM)
Bliss excess [1]: -0.0569
Bliss excess [2]: -0.0549
Bliss excess [3]: -0.0353
Bliss excess [4]: -0.0428
Bliss excess [5]: -0.045
Bliss excess [6]: 0.0412
combination Emax [7]: 0.305
combination Emax [8]: 0.166
combination Emax [9]: 0.173
combination Emax [10]: 0.0703
combination Emax [11]: 0.119
combination Emax [12]: 0.155
combination Emax [13]: 0.628
combination Emax [14]: 0.155
combination Emax [15]: 0.249
combination Emax [16]: 0.0963
combination Emax [17]: 0.153
combination Emax [18]: 0.163
combination Emax [19]: 0.769
combination Emax [20]: 0.158

C[C@@H](Nc1cc(F)cc(F)c1)c1cc(C(=O)N(C)C)cc2c(=O)cc(N3CCOCC3)oc12 [AZD8186] + C1CN(CCC1(C(=O)N[C@@H](CCO)C2=CC=C(C=C2)Cl)N)C3=NC=NC4=C3C=CN4 [AZD5363] (first compound max 10 µM, 7x7, partner max 10 µM)
Bliss excess [1]: -0.0731
Bliss excess [2]: -0.0213
Bliss excess [3]: -0.0397
Bliss excess [4]: -0.0272
Bliss excess [5]: 0.0563
Bliss excess [6]: -0.0269
combination Emax [7]: 0.589
combination Emax [8]: 0.33
combination Emax [9]: 0.365
combination Emax [10]: 0.261
combination Emax [11]: 0.249
combination Emax [12]: 0.215
combination Emax [13]: 0.408
combination Emax [14]: 0.417
combination Emax [15]: 0.547
combination Emax [16]: 0.295
combination Emax [17]: 0.519
combination Emax [18]: 0.537
combination Emax [19]: 0.725
combination Emax [20]: 0.441
